Source: ChEMBL document CHEMBL1201862, “PubChem BioAssay data set” (2004)
Active and inactive are the calls of the source.

How the values were obtained:
[1] = molecular target: Neuropeptide Y receptor type 1 (Homo sapiens, UniProt P25929); assay: IC50 of human NPY-Y1 blockers – cell-based, dose response (AID 1277); type: functional
[2] = molecular target: Neuropeptide Y receptor type 2 (Homo sapiens, UniProt P49146); assay: IC50 for human NPY-Y2 blockade – cell-based, counter-screen for NPY-Y1 antagonist project, dose response (AID 1278); type: functional
[3] = test system: Streptococcus sp. 'group A'; assay: Streptococcus pyogenes SK(-)GAS viability under kanamycin – luminescence, BacTiterGlo, confirmation, counter-screen for streptokinase expression inhibitor project, dose response (AID 1900); type: functional, organism-based
[4] = molecular target: Photoreceptor-specific nuclear receptor (Homo sapiens, UniProt Q9Y5X4); type: functional, cell-based;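 also: CHO-S cells with Gal4-NCOR and VP16-NR2E3 two-hybrid luciferase reporter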
[5] = molecular target: Ion channel NompC (Danio rerio, UniProt Q7T1G6); assay: Fluorescence counterscreen assay for TRPML3 agonists: dose response cell-based high-throughput screening assay to identify agonists of the transient receptor potential channel N1 (TRPN1). [Related pubchem assays: 1526, 1424, 1448 ]; type: functional
[6] = molecular target: Mucolipin-3 (Homo sapiens, UniProt Q8TDD5); assay: Dose response cell-based high-throughput screening assay for agonists of the transient receptor potential channel ML3 (TRPML3). [Related pubchem assays: 1526, 1424, 1448 ]; type: functional
[7] = test system: Streptococcus; assay: GAS UMAA2166 growth inhibition – luminescence, BacTiterGlo, counter-screen for streptokinase expression inhibitor project, dose response (AID 1915); type: functional, organism-based;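 also: potency for reduction of bacterial viability or growth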
[8] = molecular target: Oxytocin receptor (Homo sapiens, UniProt P30559); assay: Fluorescence-based cell-based high throughput dose response assay for potentiators of Oxytocin Receptor (OXTR). [Related pubchem assays: 434985 (Confirmation screen (OXTR potentiators in triplicate)), 2481 (Summary (OXTR potentiators)), 2445 (Primary screen (OXTR potentiators in singlicate))]; type: functional
Sequence of Oxytocin receptor (P30559 whole entry): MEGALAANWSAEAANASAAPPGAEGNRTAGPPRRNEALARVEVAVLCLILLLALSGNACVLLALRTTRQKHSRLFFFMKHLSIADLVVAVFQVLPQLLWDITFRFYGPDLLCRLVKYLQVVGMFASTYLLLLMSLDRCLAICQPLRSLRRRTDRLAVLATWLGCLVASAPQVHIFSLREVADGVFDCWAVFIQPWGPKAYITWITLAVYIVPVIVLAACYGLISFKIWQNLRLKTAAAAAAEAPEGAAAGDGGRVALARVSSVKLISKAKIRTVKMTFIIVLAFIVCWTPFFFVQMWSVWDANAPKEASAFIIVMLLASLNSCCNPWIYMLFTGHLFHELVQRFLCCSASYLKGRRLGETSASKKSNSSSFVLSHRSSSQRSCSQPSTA

Sequence of Photoreceptor-specific nuclear receptor (Q9Y5X4 whole entry, the tested form may be a part): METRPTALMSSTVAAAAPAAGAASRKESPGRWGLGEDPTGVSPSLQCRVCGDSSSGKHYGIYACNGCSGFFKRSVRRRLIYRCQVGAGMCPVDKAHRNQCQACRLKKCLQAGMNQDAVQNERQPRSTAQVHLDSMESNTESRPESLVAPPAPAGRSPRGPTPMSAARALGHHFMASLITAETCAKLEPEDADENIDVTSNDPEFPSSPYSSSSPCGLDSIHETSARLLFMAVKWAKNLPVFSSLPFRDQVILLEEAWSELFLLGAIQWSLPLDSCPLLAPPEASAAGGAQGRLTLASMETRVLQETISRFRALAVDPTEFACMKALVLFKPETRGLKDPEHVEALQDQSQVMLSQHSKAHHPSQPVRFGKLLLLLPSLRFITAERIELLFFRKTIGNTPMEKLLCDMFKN
Sequence of Mucolipin-3 (Q8TDD5 whole entry): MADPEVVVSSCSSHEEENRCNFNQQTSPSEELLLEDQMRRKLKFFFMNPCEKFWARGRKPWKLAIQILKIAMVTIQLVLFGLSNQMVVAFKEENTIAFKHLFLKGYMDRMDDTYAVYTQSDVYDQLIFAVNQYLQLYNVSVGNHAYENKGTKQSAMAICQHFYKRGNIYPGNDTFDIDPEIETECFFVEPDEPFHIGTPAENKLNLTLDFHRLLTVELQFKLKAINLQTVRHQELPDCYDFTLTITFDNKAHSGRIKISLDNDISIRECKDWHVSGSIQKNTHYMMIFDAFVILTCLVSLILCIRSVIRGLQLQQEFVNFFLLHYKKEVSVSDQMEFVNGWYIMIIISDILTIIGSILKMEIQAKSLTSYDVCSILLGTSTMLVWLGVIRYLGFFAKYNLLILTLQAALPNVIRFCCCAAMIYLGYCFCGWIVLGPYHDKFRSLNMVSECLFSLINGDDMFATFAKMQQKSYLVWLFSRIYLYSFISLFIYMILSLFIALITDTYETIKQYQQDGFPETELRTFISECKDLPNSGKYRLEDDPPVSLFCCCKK
Sequence of Neuropeptide Y receptor type 2 (P49146 whole entry): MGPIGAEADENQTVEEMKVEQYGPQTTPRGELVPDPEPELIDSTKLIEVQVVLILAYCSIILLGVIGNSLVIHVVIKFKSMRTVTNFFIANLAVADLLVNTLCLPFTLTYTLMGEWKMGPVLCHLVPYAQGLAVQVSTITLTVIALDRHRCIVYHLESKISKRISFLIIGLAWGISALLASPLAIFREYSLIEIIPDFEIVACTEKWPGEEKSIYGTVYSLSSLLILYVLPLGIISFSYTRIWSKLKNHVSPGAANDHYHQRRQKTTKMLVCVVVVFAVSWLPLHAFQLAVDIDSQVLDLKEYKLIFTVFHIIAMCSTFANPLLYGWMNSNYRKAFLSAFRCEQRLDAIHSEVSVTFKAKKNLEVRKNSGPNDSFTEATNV
Sequence of Neuropeptide Y receptor type 1 (P25929 whole entry): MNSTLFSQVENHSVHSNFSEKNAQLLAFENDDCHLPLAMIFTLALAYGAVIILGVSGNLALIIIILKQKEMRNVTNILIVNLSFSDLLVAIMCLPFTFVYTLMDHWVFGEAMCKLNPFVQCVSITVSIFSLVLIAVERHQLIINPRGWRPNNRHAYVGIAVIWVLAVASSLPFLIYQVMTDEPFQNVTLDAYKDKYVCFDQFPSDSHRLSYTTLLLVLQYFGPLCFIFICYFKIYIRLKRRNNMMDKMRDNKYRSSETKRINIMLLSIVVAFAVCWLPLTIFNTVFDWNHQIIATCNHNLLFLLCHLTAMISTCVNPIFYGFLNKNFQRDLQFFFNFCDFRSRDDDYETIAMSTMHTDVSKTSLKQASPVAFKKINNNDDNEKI
Sequence of Ion channel NompC (Q7T1G6 whole entry): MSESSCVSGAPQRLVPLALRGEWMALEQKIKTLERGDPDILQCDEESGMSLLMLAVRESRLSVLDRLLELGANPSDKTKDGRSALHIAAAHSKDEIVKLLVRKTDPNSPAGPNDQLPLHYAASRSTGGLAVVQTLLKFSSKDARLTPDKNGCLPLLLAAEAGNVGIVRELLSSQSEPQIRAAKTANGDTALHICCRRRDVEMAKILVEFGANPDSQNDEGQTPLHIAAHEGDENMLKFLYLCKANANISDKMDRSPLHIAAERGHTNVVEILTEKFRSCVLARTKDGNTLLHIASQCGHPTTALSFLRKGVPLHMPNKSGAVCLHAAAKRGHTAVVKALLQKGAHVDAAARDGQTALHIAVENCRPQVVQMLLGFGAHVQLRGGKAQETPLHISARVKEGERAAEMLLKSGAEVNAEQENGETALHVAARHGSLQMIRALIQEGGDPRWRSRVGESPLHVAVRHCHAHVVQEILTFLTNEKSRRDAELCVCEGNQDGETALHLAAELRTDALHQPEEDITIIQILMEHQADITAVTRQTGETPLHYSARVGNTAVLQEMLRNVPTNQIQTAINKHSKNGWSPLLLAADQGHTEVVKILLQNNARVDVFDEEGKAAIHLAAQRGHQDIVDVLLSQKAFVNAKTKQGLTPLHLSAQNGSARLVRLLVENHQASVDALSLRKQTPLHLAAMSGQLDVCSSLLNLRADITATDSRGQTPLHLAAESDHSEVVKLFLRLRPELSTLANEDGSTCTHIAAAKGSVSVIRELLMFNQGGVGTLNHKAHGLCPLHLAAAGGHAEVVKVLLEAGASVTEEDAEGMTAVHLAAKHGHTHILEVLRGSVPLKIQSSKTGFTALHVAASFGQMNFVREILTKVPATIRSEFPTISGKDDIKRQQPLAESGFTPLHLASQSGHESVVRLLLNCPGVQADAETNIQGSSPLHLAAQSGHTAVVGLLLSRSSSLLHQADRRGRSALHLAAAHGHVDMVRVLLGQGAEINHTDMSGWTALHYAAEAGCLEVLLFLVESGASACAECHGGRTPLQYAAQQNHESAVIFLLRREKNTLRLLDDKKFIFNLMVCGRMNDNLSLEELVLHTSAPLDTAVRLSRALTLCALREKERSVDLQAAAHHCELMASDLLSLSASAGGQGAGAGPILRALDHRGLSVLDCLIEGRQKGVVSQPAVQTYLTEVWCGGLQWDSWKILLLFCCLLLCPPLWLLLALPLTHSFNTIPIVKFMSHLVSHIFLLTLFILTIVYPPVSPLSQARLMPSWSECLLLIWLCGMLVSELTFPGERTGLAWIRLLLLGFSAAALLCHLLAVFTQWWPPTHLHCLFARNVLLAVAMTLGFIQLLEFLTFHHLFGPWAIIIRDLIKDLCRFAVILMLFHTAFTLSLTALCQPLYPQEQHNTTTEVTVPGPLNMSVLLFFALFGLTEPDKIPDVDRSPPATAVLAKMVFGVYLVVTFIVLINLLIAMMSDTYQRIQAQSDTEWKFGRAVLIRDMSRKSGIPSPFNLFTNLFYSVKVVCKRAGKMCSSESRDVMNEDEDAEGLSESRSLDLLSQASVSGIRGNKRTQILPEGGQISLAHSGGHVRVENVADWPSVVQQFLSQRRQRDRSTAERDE

`COc1ccc(N(C)S(=O)(=O)c2cccc(C(=O)NC3CCC(C)CC3)c2)cc1` (stereo not drawn) was tested, and the IC50 [1] was > 35 µM (not active) and the IC50 [2] was > 35 µM (not active).

For `N=C1SCC(=O)N1c1ncc(Cc2cccc(Cl)c2)s1`, the EC50 [3] was 0.244 µM (active), the IC50 [4] was 2.63 µM (active) and the EC50 [5] was > 29.9 µM (not active). The EC50 [6] was 5.44 µM (active) and the EC50 [7] was 3.33 µM (active).

In the case of `CCOc1ccccc1NC(=O)c1cccc(NC(=O)CC(c2ccccc2)c2ccccc2)c1`, the EC50 [8] is reported as > 29.9 µM (not active).
